Measurements published in patent US20250186456A1, “PYRIMIDINE-FUSED CYCLIC COMPOUND AND PREPARATION METHOD AND USE THEREOF” (Genfleet Therapeutics (Shanghai) Inc., priority 2021, published 2025).
Where two headings read alike, the source gives them in different places.

Columns and labels:
[1] = tested on: AGS cells (KRAS G12D); test: Cell proliferation inhibition assay, 3D, CellTiter-Glo 3D, AGS; assay type: cell-based, human; conditions: Homo sapiens, 120 h, AGS 3D sphere model, 5 days incubation
From the text: AsPC-1 was purchased from ATCC; catalog No: CRL-1682; AGS was purchased from ATCC; catalog No: CRL-1739; RPMI1640 was purchased from Gibco; catalog No: 11875-093 2235123; F12K was purchased from Gibco; catalog No: 21127-022; FBS was purchased from Gibco; catalog No: 10099-141C; trypsin (containing EDTA) was purchased from Gibco; catalog No: 25200-072; CellTiter Glo-3D was purchased from Progema; catalog No: G9683; 384-well sphere plates were purchased from Corning; catalog No: 3830; white opaque 384-well plates were purchased from Corning; catalog No: 3570; cell counters were purchased from CHEMOMETEC; model: NC-200; microplate reader was purchased from PerkinElmer; model: Envison;
AsPC-1 is an endogenous human pancreatic cancer cell containing KRAS^G12D mutation, cultured in RPMI-1640 medium containing 10% FBS; AGS is a human gastric cancer cell line containing KRAS^G12D, cultured in F-12K medium containing 10% FBS. Cells in the logarithmic growth phase were taken, digested with trypsin (containing EDTA), collected, and counted. 800 AsPC-1 cells/well or 400 AGS cells/well, respectively, were seeded in a 384-well sphere plate and cultured overnight at 5% CO2 to establish a 3D cell model. 1000X stock solutions of compounds at a 3.16-fold concentration gradient of were prepared using DMSO, diluted 100-fold into a 10X compound stock solution using the medium described above. The 10X compound stock solution was added to each cell on 2nd day after cell seeding at a final concentration of 1X and a DMSO content of 0.1%. DMSO was used as a control in the experiment, and the medium was used as blank. After the addition of the compounds, the cells were incubated for 5 days. 30 μl of CellTiter-Glo work solution was added to each well, mixed well, and incubated for 30 minutes. After standing at room temperature for 30 minutes, 40 μl of the mixed solution was transferred to an opaque 384-well plate with a white clear bottom. Luminescence chemiluminescence value was read by a microplate reader, and the cell proliferation inhibition rate (IR (%)=(RLU control-RLU compound)/(RLU control-RLU blank)×100%) was calculated. The gradiently diluted concentration of the compounds and corresponding cell proliferation inhibition rate were fitted using XLFit four-parameters method, and the IC50 value was calculated. […] The results of some exemplary compounds are shown in Table 2 (“−” represents untested).

[2] = tested on: p-ERK in AGS cells (KRAS G12D mutation); test: Cell p-ERK assay (HTRF, Advance ERK phospho-T202/Y204 kit); assay type: cell-based, human; conditions: AGS cells, 3 hours incubation with compound, HTRF, read-out: AGS p-ERK IC50
Description: AGS was purchased from ATCC; catalog No: CRL-1739; F12K was purchased from Gibco; catalog No: 21127-022; FBS was purchased from Gibco; catalog No: 10099-141C; trypsin (containing EDTA) was purchased from Gibco, catalog No: 25200-072; DMSO was purchased from VWRAMRESCO; catalog No: 0231-500 ML; 96-well cell culture plates were purchased from Corning; catalog No: 3599; white opaque 96-well plates were purchased from Cisbio; catalog No: 66PL96025; Advance ERK phospho-T202/Y204 kit was purchased from Cisbio; catalog No: 64AERPEH; cell counters were purchased from CHEMOMETEC; model No: NC-200; microplate reader was purchased from PerkinElmer; model No: Envison.
AGS is an endogenous human gastric adenocarcinoma cell line containing the KRAS^G12D mutation, cultured in F12K+10% FBS medium. On the first day of the experiment, cells in the logarithmic growth phase were taken, digested with trypsin (containing EDTA), collected, and counted. Approximately 20000 cells/well were seeded in a 96-well cell culture plate and cultured overnight in an incubator with 5% CO2. 1000X stock solutions of compounds at a 3.16-fold concentration gradient were prepared using DMSO, and diluted 200-fold into a 5X compound stock solution using the medium described above. The 5X compound stock solution was added to each cell culturing well the day after cell seeding at a final concentration of 1X and a DMSO content of 0.1%. DMSO was used as a control in the experiment. After the compound was added and the incubation was kept for 3 hours, the medium in the culture wells was removed. 50 μl of Cell lysis solution (from Advance ERK phospho-T202/Y204 kit, the same below) was added to each well, mixed well, and incubated for 30 minutes and then 16 μl of the mixed solution was transferred to a white opaque 96-well plate, another 16 μl of cell lysis solution was added to a well as a blank well. After transferring, 4 μl of p-ERK HTRF antibody mixture (from Advance ERK phospho-T202/Y204 kit) was added to each well. After incubation for 4 hours, HTRF fluorescence value (RLU) was read by a microplate reader, and p-ERK level inhibition rate (IR (%)=(RLU control-RLU compound)/(RLU control-RLU blank)×100%) of the compounds was calculated. The concentration of the compounds and corresponding cell p-ERK level inhibition rate were fitted using Prism 8 four-parameters method, and the IC50 value was calculated.

Compound	IC50 [1]	IC50 [2]	IC50 ([2]; Homo sapiens)
CCc1cccc2cccc(-c3nc4c5c(nc(OC[C@@]67CCCN6C[C@H](F)C7)nc5c3F)N3C[C@H]5CC[C@H](N5)[C@H]3[C@H](CC)O4)c12 [Example Z592, (5S,5aS,6S,9R)-5-ethyl-2-(8-ethylnaphthalen-1-yl)-1-fluoro-12-(((2R,7aS)-2-fluorotetrahydro-1H-pyrrolizin-7a (5H)-yl)methoxy)-5a,6,7,8,9,10-hexahydro-5H-4-oxa-3,10a,11,13,14-pentaaza-6,9-methanonaphtho[1,8-ab]heptalene]	354 nM		
CCc1cccc2cc(O)cc(-c3cc4nc(OC[C@@]56CCCN5C[C@H](F)C6)nc5c4c(c3Cl)OC[C@@H]3[C@@H]4CC[C@H](CN53)N4)c12 [Example Z381, 4-((5aS,6S,9R)-3-Chloro-13-(((2R,7aS)-2-Fluorotetrahydro-1H-Pyrrolizin-7a (5H)-Yl)Methoxy)-5a,6,7,8,9,10-Hexahydro-5H-6,9-Epiminoazepino[2′,1′: 3,4][1,4]Oxazepino[5,6,7-De]Quinazolin-2-Yl)-5-Ethylnaphthalen-2-Ol]		436 nM	
C#Cc1c(F)ccc2cccc(-c3nc4c5c(nc(OCC67CCCN6CC(=CF)C7)nc5c3F)N3C[C@H]5CC[C@H](N5)[C@H]3[C@@H](C)O4)c12 (stereo partly drawn) [Example Z630, (5R,5aS,6S,9R)-2-(8-ethynyl-7-fluoronaphthalen-1-yl)-1-fluoro-12-((2-(fluoromethylene)tetrahydro-1H-pyrrolizin-7a (5H)-yl)methoxy)-5-methyl-5a,6,7,8,9,10-hexahydro-5H-4-oxa-3,10a, 11, 13,14-pentaaza-6,9-methanonaphtho[1,8-ab]heptalene]			729 nM
C#Cc1c(F)ccc2cccc(-c3nc4c5c(nc(OCC67CCCN6CC(=C)C7)nc5c3F)N3C[C@H]5CC[C@H](N5)[C@H]3CCO4)c12 (stereo partly drawn) [Example Z640, (6aR,7S, 10R)-2-(8-ethynyl-7-fluoronaphthalen-1-yl)-1-fluoro-13-((2-methylenetetrahydro-1H-pyrrolizin-7a (5H)-yl)methoxy)-5,6,6a,7,8,9,10,11-octahydro-4-oxa-3,11a, 12, 14, 15-pentaaza-7,10-methanocyclohepta[4,5]cycloocta[1,2,3-de]naphthalene]			65.5 nM
C#Cc1c(F)ccc2cccc(-c3nc4c5c(nc(OC[C@]67CCCN6C[C@@H]6C[C@@H]67)nc5c3F)N3C[C@H]5CC[C@H](N5)[C@H]3[C@H](C)O4)c12 [Example Z626-1, (5S,5aS,6S,9R)-2-(8-ethynyl-7-fluoronaphthalen-1-yl)-1-fluoro-12-(((1aR,6aR,6bS)-hexahydrocyclopropa[a]pyrrolizin-6a (4H)-yl)methoxy)-5-methyl-5a,6,7,8,9,10-hexahydro-5H-4-oxa-3,10a, 11,13, 14-pentaaza-6,9-methanonaphtho[1,8-ab]heptalene]	502 nM		411 nM
C=C1CN2C[C@H](F)CC2(COc2nc3c4c(nc(-c5nc(N)cc(C)c5C5CC5)c(F)c4n2)O[C@@H](C)[C@@H]2[C@@H]4CC[C@H](CN32)N4)C1 (stereo partly drawn) [Example Z676, 5-cyclopropyl-6-((5S,5aS,6S,9R)-1-fluoro-12-(((2R)-2-fluoro-6-methylenetetrahydro-1H-pyrrolizin-7a (5H)-yl)methoxy)-5-methyl-5a,6,7,8,9,10-hexahydro-5H-4-oxa-3,10a, 11, 13, 14-pentaaza-6,9-methanonaphtho[1,8-ab]heptalen-2-yl)-4-methylpyridin-2-amine]	267 nM		70 nM
C#Cc1cccc2cc(N)cc(-c3nc4c5c(nc(OC)nc5c3F)N3C[C@H]5CC[C@H](N5)[C@H]3[C@H](C)O4)c12 [Example Z705, 5-ethynyl-4-((5S,5aS,6S,9R)-1-fluoro-12-methoxy-5-methyl-5a,6,7,8,9,10-hexahydro-5H-4-oxa-3,10a, 11,13,14-pentaaza-6,9-methanonaphtho[1,8-ab]heptalen-2-yl) naphthalen-2-amine]			195 nM
C=C1CN2C[C@H](F)CC2(COc2nc3c4c(nc(-c5cccc6cccc(C#N)c56)c(F)c4n2)O[C@@H](C)[C@@H]2[C@@H]4CC[C@H](CN32)N4)C1 (stereo partly drawn) [Example Z673, 8-((5S,5aS,6S,9R)-1-fluoro-12-(((2R)-2-fluoro-6-methylenetetrahydro-1H-pyrrolizin-7a (5H)-yl)methoxy)-5-methyl-5a,6,7,8,9,10-hexahydro-5H-4-oxa-3,10a,11,13,14-pentaaza-6,9-methanonaphtho[1,8-ab]heptalen-2-yl)-1-naphthonitrile]			147 nM
C#Cc1c(F)ccc2cccc(-c3nc4c5c(nc(OCC67CC(=C)CN6C[C@@H]6C[C@@H]67)nc5c3F)N3C[C@H]5CC[C@H](N5)[C@H]3[C@H](C)O4)c12 (stereo partly drawn) [Example Z605, (5S,5aS,6S,9R)-2-(8-ethynyl-7-fluoronaphthalen-1-yl)-1-fluoro-5-methyl-12-(((1aR,6bS)-5-methylenehexahydrocyclopropa[a]pyrrolizin-6a (4H)-yl)methoxy)-5a,6,7,8,9,10-hexahydro-5H-4-oxa-3,10a,11,13,14-pentaaza-6,9-methanonaphtho[1,8-ab]heptalene]			554 nM
C=C1CN2C[C@H](F)CC2(COc2nc3c4c(nc(-c5cc(N)nc(C)c5C5CC5)c(F)c4n2)O[C@@H](C)[C@@H]2[C@@H]4CC[C@H](CN32)N4)C1 (stereo partly drawn) [Example Z680, 5-Cyclopropyl-4-((58,5aS,6S,9R)-1-Fluoro-12-(((2R)-2-Fluoro-6-Methylenetetrahydro-1H-Pyrrolizin-7a (5H)-Yl)Methoxy)-5-Methyl-5a,6,7,8,9,10-Hexahydro-5H-4-Oxa-3,10a,11,13,14-Pentaaza-6,9-Methanonaphtho[1,8-Ab]Heptalen-2-Yl)-6-Methylpyridin-2-Amine]	386 nM		143 nM
C#Cc1cccc2c(N)ccc(-c3nc4c5c(nc(OCC67CC(=C)CN6C[C@H](F)C7)nc5c3F)N3C[C@H]5CC[C@H](N5)[C@H]3[C@H](C)O4)c12 (stereo partly drawn) [Example Z686, 5-ethynyl-4-((5S,5aS,6S,9R)-1-fluoro-12-(((2R)-2-fluoro-6-methylenetetrahydro-1H-pyrrolizin-7a (5H)-yl)methoxy)-5-methyl-5a,6,7,8,9,10-hexahydro-5H-4-oxa-3,10a,11,13,14-pentaaza-6,9-methanonaphtho[1,8-ab]heptalen-2-yl) naphthalen-1-amine]			447 nM
C#Cc1c(F)ccc2cccc(-c3nc4c5c(nc(OCC67CC(F)CN6CCC7=C)nc5c3F)N3C[C@H]5CC[C@H](N5)[C@H]3[C@H](C)O4)c12 (stereo partly drawn) [Example Z609, (5S,5aS,6S,9R)-2-(8-ethynyl-7-fluoronaphthalen-1-yl)-1-fluoro-12-((6-fluoro-1-methylenetetrahydro-1H-pyrrolizin-7a (5H)-yl)methoxy)-5-methyl-5a,6,7,8,9,10-hexahydro-5H-4-oxa-3,10a,11,13,14-pentaaza-6,9-methanonaphtho[1,8-ab]heptalene]			49.2 nM
